Experimental data: patent US20230278972A1, “SUBSTITUTED HALOALKYL SULFONANILIDE HERBICIDES” (FMC Corporation, priority 2020, published 2023)

How the values were obtained:
Assay type in all cases: in vivo
[1] = tested on: pigweed (Amaranthus retroflexus); test: Test A postemergence, pigweed; conditions: Postemergence, 0 to 100 scale (0 no effect, 100 complete control); for Pigweed plant response rating: visual injury vs untreated controls after approx. 10 days
Source text: (§1) Seeds of plant species selected from barnyardgrass (Echinochloa crus-galli), kochia (Bassia scoparia), ragweed (common ragweed, Ambrosia artemisiifolia), Ryegrass, Italian (Italian ryegrass, Lolium multiflorum), Foxtail, Giant (giant foxtail, Setaria faberi), and pigweed (Amaranthus retroflexus) were planted into a blend of loam soil and sand and treated preemergence with a directed soil spray using test chemicals formulated in a non-phytotoxic solvent mixture which included a surfactant. At the same time, plants selected from these weed species and also wheat (Triticum aestivum), corn (Zea mays), blackgrass (Alopecurus myosuroides), and galium (catchweed bedstraw, Galium aparine) were planted in pots containing the same blend of loam soil and sand and treated with postemergence applications of test chemicals formulated in the same manner. Plants ranged in height from 2 to 10 cm and were in the one- to two-leaf stage for the postemergence treatment. […] A dash (-) response means no test result.

[2] = tested on: blackgrass (Alopecurus myosuroides); test: Test A postemergence, blackgrass; conditions: Postemergence, 0 to 100 scale (0 no effect, 100 complete control); for Blackgrass plant response rating: visual injury vs untreated controls after approx. 10 days
Source text: as §1

kochia (Bassia scoparia) [3] = test: Test A preemergence, kochia; conditions: Preemergence; for Kochia plant response rating: visual injury on 0 to 100 scale (0 no effect, 100 complete control), approximately 10 days; for Plant response rating, Kochia: 0 to 100 scale (0 no effect, 100 complete control)
Source text: as §1

[4] = tested on: Foxtail, Giant (giant foxtail, Setaria faberi); test: Test A preemergence, Foxtail, Giant; conditions: Preemergence; for Foxtail, Giant plant response rating: visual injury on 0 to 100 scale (0 no effect, 100 complete control), approximately 10 days; for Plant response rating, Foxtail, Giant: 0 to 100 scale (0 no effect, 100 complete control)
Source text: as §1

[5] = tested on: wheat (Triticum aestivum); test: Test A postemergence, wheat; conditions: Postemergence, 0 to 100 scale (0 no effect, 100 complete control); for Wheat plant response rating: visual injury vs untreated controls after approx. 10 days
Source text: as §1

[6] = tested on: Foxtail, Giant (giant foxtail, Setaria faberi); test: Test A postemergence, Foxtail, Giant; conditions: Postemergence, 0 to 100 scale (0 no effect, 100 complete control); for Foxtail, Giant plant response rating: visual injury vs untreated controls after approx. 10 days
Source text: as §1

kochia (Bassia scoparia) [7] = test: Test A postemergence, kochia; conditions: Postemergence, 0 to 100 scale (0 no effect, 100 complete control); for Kochia plant response rating: visual injury vs untreated controls after approx. 10 days
Source text: as §1

[8] = tested on: Ryegrass, Italian (Italian ryegrass, Lolium multiflorum); test: Test A postemergence, Ryegrass, Italian; conditions: Postemergence, 0 to 100 scale (0 no effect, 100 complete control); for Ryegrass, Italian plant response rating: visual injury vs untreated controls after approx. 10 days
Source text: as §1

[9] = tested on: ragweed (common ragweed, Ambrosia artemisiifolia); test: Test A postemergence, ragweed; conditions: Postemergence, 0 to 100 scale (0 no effect, 100 complete control); for Ragweed plant response rating: visual injury vs untreated controls after approx. 10 days
Source text: as §1

[10] = tested on: barnyardgrass (Echinochloa crus-galli); test: Test A preemergence, barnyardgrass; conditions: Preemergence; for Barnyardgrass plant response rating: visual injury on 0 to 100 scale (0 no effect, 100 complete control), approximately 10 days; for Plant response rating, Barnyardgrass: 0 to 100 scale (0 no effect, 100 complete control)
Source text: as §1

corn (Zea mays) = test: Test A postemergence, corn; conditions: Postemergence, 0 to 100 scale (0 no effect, 100 complete control); for Corn plant response rating: visual injury vs untreated controls after approx. 10 days
Source text: as §1

[11] = tested on: ragweed (common ragweed, Ambrosia artemisiifolia); test: Test A preemergence, ragweed; conditions: Preemergence; for Ragweed plant response rating: visual injury on 0 to 100 scale (0 no effect, 100 complete control), approximately 10 days; for Plant response rating, Ragweed: 0 to 100 scale (0 no effect, 100 complete control)
Source text: as §1

[12] = tested on: barnyardgrass (Echinochloa crus-galli); test: Test A postemergence, barnyardgrass; conditions: Postemergence, 0 to 100 scale (0 no effect, 100 complete control); for Barnyardgrass plant response rating: visual injury vs untreated controls after approx. 10 days
Source text: as §1

[13] = tested on: galium (catchweed bedstraw, Galium aparine); test: Test A postemergence, galium; conditions: Postemergence, 0 to 100 scale (0 no effect, 100 complete control); for Galium plant response rating: visual injury vs untreated controls after approx. 10 days
Source text: as §1

[14] = tested on: Ryegrass, Italian (Italian ryegrass, Lolium multiflorum); test: Test A preemergence, Ryegrass, Italian; conditions: Preemergence; for Ryegrass, Italian plant response rating: visual injury on 0 to 100 scale (0 no effect, 100 complete control), approximately 10 days; for Plant response rating, Ryegrass, Italian: 0 to 100 scale (0 no effect, 100 complete control)
Source text: as §1

[15] = 500 g ai/ha, visual injury approx. 10 days
[16] = 125 g ai/ha, visual injury, approx. 10 days

Compound	Plant response rating, Pigweed ([1]; 125 g ai/ha)	Pigweed plant response rating ([1]; 500 g ai/ha)	Plant response rating, Blackgrass ([2]; 125 g ai/ha)	Blackgrass plant response rating ([2]; 500 g ai/ha)	Kochia plant response rating (kochia (Bassia scoparia) [3]; 125 g ai/ha)	Plant response rating, Kochia (kochia (Bassia scoparia) [3]; 500 g ai/ha)	Foxtail, Giant plant response rating ([4]; 125 g ai/ha)	Plant response rating, Foxtail, Giant ([4]; 500 g ai/ha)	Plant response rating, Wheat ([5]; 125 g ai/ha)	Wheat plant response rating ([5]; 500 g ai/ha)	Plant response rating, Foxtail, Giant ([6]; 125 g ai/ha)	Foxtail, Giant plant response rating ([6]; 500 g ai/ha)	Plant response rating, Kochia (kochia (Bassia scoparia) [7]; 125 g ai/ha)	Kochia plant response rating (kochia (Bassia scoparia) [7]; 500 g ai/ha)	Plant response rating, Ryegrass, Italian ([8]; 125 g ai/ha)	Ryegrass, Italian plant response rating ([8]; 500 g ai/ha)	Plant response rating, Ragweed ([9]; 125 g ai/ha)	Plant response rating, Corn (corn (Zea mays); 125 g ai/ha)	Plant response rating, Barnyardgrass ([12]; 125 g ai/ha)	Plant response rating, Galium ([13]; 125 g ai/ha)	also measured
Cc1cc(C)c(C2=NOC3CCCC23)cc1NS(=O)(=O)C(F)(F)F (stereo not shown) [Compound 166]	40	90	10	20	90	100	80	100	70	70	50	60	50	80	90	90	40	10	90	80	Ragweed plant response rating ([9]; 500 g ai/ha): 80; Barnyardgrass plant response rating ([10]; 125 g ai/ha): 100; Plant response rating, Barnyardgrass ([10]; 500 g ai/ha): 100; Corn plant response rating (corn (Zea mays); 500 g ai/ha): 50; Ragweed plant response rating ([11]; 125 g ai/ha): 20; Plant response rating, Ragweed ([11]; 500 g ai/ha): 80; Barnyardgrass plant response rating ([12]; 500 g ai/ha): 90; Galium plant response rating ([13]; 500 g ai/ha): 90; Ryegrass, Italian plant response rating ([14]; 125 g ai/ha): 70; Plant response rating, Ryegrass, Italian ([14]; 500 g ai/ha): 100
COC1CCN(C(=O)c2cc(N(S(=O)(=O)C(F)(F)F)S(=O)(=O)C(F)(F)F)c(C)cc2C)C1 (stereo not shown) [Compound 138]	90								30						0		30				
CC(=O)N(c1cc(N2CCC3(CCCCC3)C2=O)c(C)cc1C)S(=O)(=O)C(F)(F)F [Compound 265]	60		30						30		0		40		20		60	20	60	90	Plant response rating, Pigweed [1, 15]: 90; Plant response rating, Blackgrass [2, 15]: 20; Plant response rating, Kochia (kochia (Bassia scoparia) [3]; [16]): 90; Kochia plant response rating (kochia (Bassia scoparia) [3]; 500 g ai/ha): 90; Plant response rating, Foxtail, Giant [4, 16]: 100; Foxtail, Giant plant response rating ([4]; 500 g ai/ha): 100; Plant response rating, Wheat [5, 15]: 60; Plant response rating, Foxtail, Giant [6, 15]: 20; Plant response rating, Kochia (kochia (Bassia scoparia) [7]; [15]): 50; Plant response rating, Ryegrass, Italian [8, 15]: 70; Plant response rating, Ragweed [9, 15]: 80; Plant response rating, Barnyardgrass [10, 16]: 90; Barnyardgrass plant response rating ([10]; 500 g ai/ha): 100; Plant response rating, Corn (corn (Zea mays); [15]): 60; Plant response rating, Ragweed [11, 16]: 90; Ragweed plant response rating ([11]; 500 g ai/ha): 90; Plant response rating, Barnyardgrass [12, 15]: 80; Plant response rating, Galium [13, 15]: 90; Plant response rating, Ryegrass, Italian [14, 16]: 90; Ryegrass, Italian plant response rating ([14]; 500 g ai/ha): 100
Cc1cc(C)c(C2=NOC3(CCSCC3)C2)cc1NS(=O)(=O)C(F)(F)F [Compound 176]	60	90	40	70	70	90	100	100	60	60	90	90	40	50	60	80	60	70	80	90	Ragweed plant response rating ([9]; 500 g ai/ha): 90; Barnyardgrass plant response rating ([10]; 125 g ai/ha): 70; Plant response rating, Barnyardgrass ([10]; 500 g ai/ha): 90; Corn plant response rating (corn (Zea mays); 500 g ai/ha): 80; Ragweed plant response rating ([11]; 125 g ai/ha): 40; Plant response rating, Ragweed ([11]; 500 g ai/ha): 90; Barnyardgrass plant response rating ([12]; 500 g ai/ha): 90; Galium plant response rating ([13]; 500 g ai/ha): 90; Ryegrass, Italian plant response rating ([14]; 125 g ai/ha): 90; Plant response rating, Ryegrass, Italian ([14]; 500 g ai/ha): 100
